Test results from patent US8536183B2, “3-pyridylcarbonyl-piperazinylsulfonyl derivatives” (Convergence Pharmaceuticals Limited, priority 2008, dated 2013).
Counter-ions that a name gives are not always drawn.

Molecular target: T1, hCaV2.2 (Homo sapiens, UniProt Q00975)
T1 construct: expressed in transfected cells; plasmids pCIN5-hCaV2.2, pCIH-hCaV β3, pCIP-α2δ1
Assay: hCaV2.2 assay, IonWorks planar array electrophysiology in stably transfected HEK293 cells
Format: cell-based
Conditions: current elicited by the 1st depolarising pulse inhibited by 50%; HEK293 cells expressing human CaV2.2 alpha/beta3/alpha2delta1; read-out: mean pIC50 (tonic pIC50) (converted)
Description: Compounds of the invention may be tested for in vitro biological activity in the hCaV2.2 assay in accordance with the following studies:
Stable cell lines expressing the human CaV2.2 α (als) subunit, along with the human […] and α2δ1 auxiliary subunits were created following sequential transfection and selection of human embryonic kidney (HEK293) cells. HEK293 cells were cultured in Dulbecco's modified Eagles media/F12 media (Invitrogen, Cat #041-95750V) containing 10% foetal bovine serum, with added L-glutamine (2 mM; Invitrogen, Cat #25030-024) and non-essential amino acids (5%; Invitrogen, Cat #11140-035). Initially HEK293 cells were transfected with two plasmid vectors for expression of the hCaV2.2 α subunit (pCIN5-hCaV2.2 which carries a neomycin resistance marker) and the hCaV β3 subunit (pCIH-hCaV β3 which carries a hygromycin resistance marker). Clonal cell lines were isolated following selection in media supplemented with 0.4 mg ml^−1 Geneticin G418 (Invitrogen, Cat #10131-027) and 0.1 mg ml^1 hygromycin (Invitrogen, Cat #10687-010). These clonal cell lines were assessed for Cav2.2α/β3-mediated current expression using the IonWorks planar array electrophysiology technology (described below). A clonal line was identified that gave a reasonable level of functional Cav2.2α/β3 current expression. This cell line was transfected with a plasmid vector for expression of the human […] subunit (pCIP-α2δ1 which carries a puromycin resistance marker) and clonal cell lines isolated following selection in media containing 0.62 μg ml^−1 puromycin (Sigma, Cat #P-7255), in addition to 0.4 mg ml^−1 Geneticin G418 and 0.1 mg ml^−1 hygromycin. Several cell lines were identified that gave robust levels of Cav2.2α/β3/α2δ1-mediated current expression and one of these was selected for compound profiling. Expression of all three subunits within this cell line was continuously maintained by the inclusion of G418 (0.4 mg ml^−1), hygromycin (0.1 mg ml^−1) and puromycin (0.62 μg ml^−1). Cells were maintained at 37° C. in a humidified environment containing 5% CO2 in air. Cells were liberated from the T175 culture flasks for passage and harvesting using TrpLE (Invitrogen, Cat #12604-013).
Cells were grown to 30-60% confluence in T175 flasks and maintained at 30° C. for 24 hrs prior to recording. Cells were lifted by removing the growth media, washing with Ca^2+ free PBS (Invitrogen, Cat #14190-094) and incubating with 3 ml of warmed (37° C.) TrpLE (Invitrogen, Cat #12604-013) for 6 minutes. Lifted cells were suspended in 10 ml of extracellular buffer. Cell suspension was then placed into a 15 ml tube and centrifuged for 2 minutes at 700 rpm. After centrifugation, the supernatant was removed and the cell pellet was resuspended in 4.5 ml of extracellular solution.
Currents were recorded at room temperature (21-23° C.) using the IonWorks planar array electrophysiology technology (Molecular Devices Corp.). Stimulation protocols and data acquisition were carried out using a microcomputer (Dell Pentium 4). In order to determine planar electrode hole resistances (Rp), a 10 mV, 160 ms potential difference was applied across each hole. These measurements were performed before cell addition. After cell addition a seal test was performed prior to antibiotic (amphotericin) circulation to achieve intracellular access. Leak subtraction was conducted in all experiments by applying a 160 ms hyperpolarizing (10 mV) prepulse 200 ms before the test pulses to measure leak conductance. Test pulses stepping from the holding potential (VH) of −90 mV to +10 mV were applied for 20 ms and repeated 10 times at a frequency of 10 Hz. In all experiments, the test pulse protocol was performed in the absence (pre-read) and presence (post-read) of a compound. Pre- and post-reads were separated by a compound addition followed by a 3-3.5 min incubation.
The intracellular solution contained the following (in mM): K-gluconate 120, KCl 20 mM, MgCl2 5, EGTA 5, HEPES 10, adjusted to pH 7.3. […]

T1 sequence (Q00975 whole entry): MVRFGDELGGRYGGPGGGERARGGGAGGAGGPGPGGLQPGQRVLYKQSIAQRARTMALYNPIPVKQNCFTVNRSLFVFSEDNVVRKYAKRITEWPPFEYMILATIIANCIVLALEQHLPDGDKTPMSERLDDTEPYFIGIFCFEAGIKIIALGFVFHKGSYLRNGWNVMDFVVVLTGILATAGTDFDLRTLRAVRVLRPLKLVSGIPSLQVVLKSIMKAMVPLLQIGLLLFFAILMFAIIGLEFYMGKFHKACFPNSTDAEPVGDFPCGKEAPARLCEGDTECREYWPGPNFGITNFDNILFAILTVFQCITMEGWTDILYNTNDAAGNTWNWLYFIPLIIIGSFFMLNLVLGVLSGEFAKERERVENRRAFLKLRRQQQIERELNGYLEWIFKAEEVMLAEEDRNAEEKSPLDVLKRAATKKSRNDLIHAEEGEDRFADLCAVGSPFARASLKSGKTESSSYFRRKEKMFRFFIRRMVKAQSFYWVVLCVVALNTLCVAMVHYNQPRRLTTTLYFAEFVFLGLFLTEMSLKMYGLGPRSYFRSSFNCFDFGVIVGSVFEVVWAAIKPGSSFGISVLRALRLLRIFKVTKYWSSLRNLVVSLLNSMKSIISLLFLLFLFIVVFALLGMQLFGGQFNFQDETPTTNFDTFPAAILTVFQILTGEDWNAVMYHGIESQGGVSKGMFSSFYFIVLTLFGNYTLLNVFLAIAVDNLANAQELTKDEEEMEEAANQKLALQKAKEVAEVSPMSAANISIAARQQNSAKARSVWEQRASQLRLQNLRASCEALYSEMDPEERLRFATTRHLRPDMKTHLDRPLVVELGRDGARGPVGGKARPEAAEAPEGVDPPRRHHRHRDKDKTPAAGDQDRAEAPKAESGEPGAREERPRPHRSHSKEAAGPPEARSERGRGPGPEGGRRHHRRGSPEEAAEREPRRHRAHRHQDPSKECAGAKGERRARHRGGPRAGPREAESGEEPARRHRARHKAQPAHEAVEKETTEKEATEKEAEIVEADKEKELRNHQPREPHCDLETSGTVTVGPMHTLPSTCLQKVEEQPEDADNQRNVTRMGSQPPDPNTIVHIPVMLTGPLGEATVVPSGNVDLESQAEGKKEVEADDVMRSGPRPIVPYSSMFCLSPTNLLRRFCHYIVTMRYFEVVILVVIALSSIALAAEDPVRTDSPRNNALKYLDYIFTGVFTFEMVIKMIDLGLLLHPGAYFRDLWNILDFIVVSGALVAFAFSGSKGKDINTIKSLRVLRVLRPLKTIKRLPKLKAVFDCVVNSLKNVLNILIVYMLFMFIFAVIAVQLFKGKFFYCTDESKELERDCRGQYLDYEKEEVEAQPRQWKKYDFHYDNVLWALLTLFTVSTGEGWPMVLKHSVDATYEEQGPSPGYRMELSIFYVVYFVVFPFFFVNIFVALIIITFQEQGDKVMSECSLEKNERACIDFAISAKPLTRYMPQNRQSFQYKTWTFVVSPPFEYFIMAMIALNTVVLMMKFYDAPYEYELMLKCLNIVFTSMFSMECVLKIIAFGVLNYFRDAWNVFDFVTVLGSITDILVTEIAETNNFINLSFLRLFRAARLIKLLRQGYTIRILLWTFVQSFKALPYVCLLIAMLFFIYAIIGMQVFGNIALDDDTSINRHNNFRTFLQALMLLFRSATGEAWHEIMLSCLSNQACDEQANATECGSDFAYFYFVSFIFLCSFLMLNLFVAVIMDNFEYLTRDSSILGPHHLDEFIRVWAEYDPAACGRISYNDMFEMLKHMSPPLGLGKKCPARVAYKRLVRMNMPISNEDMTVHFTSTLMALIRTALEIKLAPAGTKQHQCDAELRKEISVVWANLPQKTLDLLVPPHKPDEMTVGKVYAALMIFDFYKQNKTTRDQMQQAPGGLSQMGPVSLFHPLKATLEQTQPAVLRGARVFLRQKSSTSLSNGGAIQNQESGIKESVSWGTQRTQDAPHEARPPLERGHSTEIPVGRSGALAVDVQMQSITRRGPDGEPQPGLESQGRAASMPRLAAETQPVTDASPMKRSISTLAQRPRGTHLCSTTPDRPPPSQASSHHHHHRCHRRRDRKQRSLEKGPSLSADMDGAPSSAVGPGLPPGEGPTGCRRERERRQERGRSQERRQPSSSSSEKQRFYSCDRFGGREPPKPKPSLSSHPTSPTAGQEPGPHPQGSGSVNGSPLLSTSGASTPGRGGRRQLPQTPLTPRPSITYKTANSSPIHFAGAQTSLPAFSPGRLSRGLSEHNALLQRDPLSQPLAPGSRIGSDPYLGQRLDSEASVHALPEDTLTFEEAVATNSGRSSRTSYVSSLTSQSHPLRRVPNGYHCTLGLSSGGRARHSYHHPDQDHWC

Row | Compound | IC50 [µM]
1 | Cc1ccc(C(=O)N2CCN(S(=O)(=O)c3ccc(OC(F)(F)F)cc3)CC2)cn1 [Example 23, 1-[(6-Methyl-3-pyridinyl)carbonyl]-4-({4-[(trifluoromethyl)oxy]phenyl}sulfonyl)piperazine] | ≥ 31.6
2 | Cc1ccc(C(=O)N2CCN(S(=O)(=O)c3ccc(C#N)cc3)C[C@@H]2C)cn1 [Example 72, 4-({(3S)-3-methyl-4-[(6-methyl-3-pyridinyl)carbonyl]-1-piperazinyl}sulfonyl)benzo-nitrile] | ≥ 31.6
3 | Cc1cc(C#N)ccc1S(=O)(=O)N1CCN(C(=O)c2ccc(N3CCC3)nc2C)[C@@H](C)C1 [Example 40, 4-[((38)-4-{[6-(1-Azetidinyl)-2-methyl-3-pyridinyl]carbonyl}-3-methyl-1-piperazinyl)sulfonyl]-3-methylbenzonitrile hydrochloride] | ≥ 31.6
4 | Cc1ccc(C(F)(F)F)cc1S(=O)(=O)N1CCN(C(=O)c2cccnc2C)CC1 [Example 62, 1-[(2-methyl-3-pyridinyl)carbonyl]-4-{[2-methyl-5-(trifluoromethyl)phenyl]sulfon-yl}piperazine] | ≥ 31.6
5 | Cc1ccc(C(=O)N2CCN(S(=O)(=O)c3ccc(C(F)(F)F)cc3)[C@H](C)C2)cn1 [Example 9, (2R)-2-Methyl-4-[(6-methyl-3-pyridinyl)carbonyl]-1-{[4-(trifluoromethyl)phenyl]sulfonyl}piperazine formic acid salt] | ≥ 31.6
6 | Cc1cc(C#N)ccc1S(=O)(=O)N1CCN(C(=O)c2ccc(N3CCOCC3)nc2C)[C@@H](C)C1 [Example 35, 3-Methyl-4-[((3S)-3-methyl-4-{[2-methyl-6-(4-morpholinyl)-3-pyridinyl]carbonyl}-1-piperazinyl)sulfonyl]benzonitrile hydrochloride] | ≥ 10
7 | Cc1ncccc1C(=O)N1CCN(S(=O)(=O)c2ccc(C(F)(F)F)cc2)[C@H](C)C1 [Example 10, (2R)-2-Methyl-4-[(2-methyl-3-pyridinyl)carbonyl]-1-{[4-(trifluoromethyl)phenyl]sulfonyl}piperazine formic acid salt] | ≥ 31.6
8 | O=C(c1ccc(NC2CCOCC2)nc1)N1CCN(S(=O)(=O)c2ccc(C(F)(F)F)cc2)CC1 [Example 70, N-(tetrahydro-2H-pyran-4-yl)-5-[(4-{[4-(trifluoromethyl)phenyl]sulfon-yl}-1-piperazinyl)carbonyl]-2-pyridinamine] | ≥ 31.6
9 | Cc1ccc(C(=O)N2CCN(S(=O)(=O)c3ccc(OC(F)F)cc3)C[C@@H]2C)cn1 [Example 22, (2S)-4-({4-[(Difluoromethyl)oxy]phenyl}sulfonyl)-2-methyl-1-[(6-methyl-3-pyridinyl)carbonyl]piperazine] | ≥ 31.6
10 | Cc1ncccc1C(=O)N1CCN(S(=O)(=O)c2ccc(OC(F)(F)F)cc2)C[C@H]1C [Example 58, (2R)-2-methyl-1-[(2-methyl-3-pyridinyl)carbonyl]-4-({4-[(trifluoromethyl)oxy]phenyl}sulfonyl)piperazine] | ≥ 31.6
11 | Cc1ccc(C(=O)N2CCN(S(=O)(=O)c3cc(C(F)(F)F)ccc3C)C[C@@H]2C)cn1 [Example 59, (2S)-2-methyl-1-[(6-methyl-3-pyridinyl)carbonyl]-4-{[2-methyl-5-(trifluoromethyl)phenyl]sulfon-yl}piperazine] | ≥ 31.6
12 | Cc1cc(N2CCOCC2)ncc1C(=O)N1CCN(S(=O)(=O)c2ccc(C(F)(F)F)cc2)C[C@@H]1C [Example 47, 4-{4-Methyl-5-[((2S)-2-methyl-4-{[4-(trifluoromethyl)phenyl]sulfonyl}-1-piperazinyl)carbonyl]-2-pyridinyl}morpholine hydrochloride] | ≥ 10
13 | Cc1ncccc1C(=O)N1CCN(S(=O)(=O)c2ccc(C(F)(F)F)cc2)CC1 [Example 5, 1-[(2-Methyl-3-pyridinyl)carbonyl]-4-{[4-(trifluoromethyl)phenyl]sulfonyl}piperazine] | ≥ 31.6
14 | O=C(c1cccnc1)N1CCN(S(=O)(=O)c2ccc(C(F)(F)F)cc2)CC1 [Example 3, 1-(3-Pyridinylcarbonyl)-4-{[4-(trifluoromethyl)phenyl]sulfonyl}piperazine] | ≥ 31.6
15 | Cc1ccc(C(=O)N2CCN(S(=O)(=O)c3ccc(OC(F)F)cc3)CC2)cn1 [Example 73, 1-({4-[(difluoromethyl)oxy]phenyl}sulfonyl)-4-[(6-methyl-3-pyridinyl)carbonyl]piperazine] | ≥ 31.6
16 | CNc1ccc(C(=O)N2CCN(S(=O)(=O)c3ccc(C#N)cc3C)C[C@@H]2C)c(C)n1 [Example 38, 3-Methyl-4-[((3S)-3-methyl-4-{[2-methyl-6-(methylamino)-3-pyridinyl]carbonyl}-1-piperazinyl)sulfonyl]benzonitrile] | ≥ 31.6

Now from value to compound:

Row | IC50 [µM] | Compound
17 | ≥ 31.6 | Cc1ccc(C(=O)N2CCN(S(=O)(=O)c3ccc(OC(F)(F)F)cc3)C[C@@H]2C)cn1 [Example 21, (2S)-2-Methyl-1-[(6-methyl-3-pyridinyl)carbonyl]-4-({4-[(trifluoromethyl)oxy]phenyl}sulfonyl)piperazine]
18 | ≥ 31.6 | Cc1ccncc1C(=O)N1CCN(S(=O)(=O)c2ccc(C(F)(F)F)cc2)C[C@@H]1C [Example 18, (2S)-2-Methyl-1-[(4-methyl-3-pyridinyl)carbonyl]-4-{[4-(trifluoromethyl)phenyl]sulfonyl}piperazine]
19 | ≥ 31.6 | CN(C)c1ccc(C(=O)N2CCN(S(=O)(=O)c3ccc(C(F)(F)F)cc3)CC2)cn1 [Example 57, N,N-dimethyl-5-[(4-{[4-(trifluoromethyl)phenyl]sulfonyl}-1-piperazinyl)carbonyl]-2-pyridinamine]
20 | ≥ 10 | Cc1nc(Cl)ccc1C(=O)N1CCN(S(=O)(=O)c2ccc(C(F)(F)F)cc2)C[C@@H]1C [Example 24, (2S)-1-[(6-Chloro-2-methyl-3-pyridinyl)carbonyl]-2-methyl-4-{[4-(trifluoromethyl)phenyl]sulfonyl}piperazine]
21 | ≥ 31.6 | C[C@H]1CN(S(=O)(=O)c2ccc(C(F)(F)F)cc2)CCN1C(=O)c1ccc(C#N)nc1 [Example 13, 5-[((2S)-2-Methyl-4-{[4-(trifluoromethyl)phenyl]sulfonyl}-1-piperazinyl)carbonyl]-2-pyridinecarbonitrile]
22 | ≥ 31.6 | Cc1ccc(C(=O)N2CCN(S(=O)(=O)c3ccc(C(F)(F)F)cc3)[C@@H](C)C2)cn1 [Example 11, (2S)-2-Methyl-4-[(6-methyl-3-pyridinyl)carbonyl]-1-{[4-(trifluoromethyl)phenyl]sulfonyl}piperazine formic acid salt]
23 | ≥ 10 | CNc1ccc(C(=O)N2CCN(S(=O)(=O)c3ccc(C(F)(F)F)cc3)C[C@@H]2C)cn1 [Example 44, Methyl-5-[((2S)-2-methyl-4-{[4-(trifluoromethyl)phenyl]sulfonyl}-1-piperazinyl)carbonyl]-2-pyridinamine hydrochloride]
24 | ≥ 10 | C[C@H]1CN(S(=O)(=O)c2ccc(C(F)(F)F)cc2)CCN1C(=O)c1ccc(N(C)C)nc1 [Example 41, N,N-Dimethyl-5-[((2S)-2-methyl-4-{[4-(trifluoromethyl)phenyl]sulfonyl}-1-piperazinyl)carbonyl]-2-pyridinamine hydrochloride]
25 | ≥ 31.6 | Cc1ccc(C(=O)N2CCN(S(=O)(=O)c3ccc(C(F)(F)F)cc3)C[C@H]2C)cn1 [Example 19, (2R)-2-methyl-1-[(6-methyl-3-pyridinyl)carbonyl]-4-{[4-(trifluoromethyl)phenyl]sulfonyl}piperazine formic acid salt (1:1)]
